Assay [1] concerns IL-17 production by CD4 T cells under conditions which favor Th17 differentiation. Kind of assay: Human Th17 assay (IL-17 production by CD4 T cells). In kind it is cell-based. To be noted: Homo sapiens, CD4+ T; read-out: Human Th17 Assay, IC50. As to the method: The human Th17 assay tests the effect of RORγt modulatory compounds on IL-17 production by CD4 T cells under conditions which favor Th17 differentiation. Total CD4^+ T cells were isolated from the peripheral blood mononuclear cells (PBMC) of healthy donors using a CD4^+ T cell isolation kit II, following the manufacturer's instructions (Miltenyi Biotec). […] 50 μL of compound at titrated concentrations in DMSO were added into each well at final DMSO concentration at 0.2%. Cells were incubated for 1 hour, then 50 μL of Th17 cell differentiation medium was added to each well. […] Cells were cultured at 37° C. and 5% CO2 for 3 days. Supernatants were collected and the accumulated IL-17 in culture was measured by using MULTI-SPOT® Cytokine Plate following manufacture's instruction (Meso Scale Discovery). The plate was read using Sector Imager 6000, and IL-17 concentration was extrapolated from the standard curve. The IC50s were determined by GraphPad.

The target of assay [2] is full-length human RORγt (Homo sapiens (Human), UniProt P51449). As to the kind of experiment: RORγt (full-length human) reporter assay, conditions A or B, HEK293T cells. It is filed as cell-based. To be noted: for inhibition at 1 µM: 1 μM compound concentration (footnote ***); for inhibition at 0.67 µM: 0.67 μM compound concentration (footnote ****). Summed up: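 Dual-luciferase read-out was taken after an overnight (16–20 h) compound exposure. Firefly data were scaled between DMSO-only and saturating reference compound, Renilla-normalized, then plotted against concentration for IC50.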
full-length human RORγt, sequence (P51449 other isoform, or with tags, fused parts or gaps): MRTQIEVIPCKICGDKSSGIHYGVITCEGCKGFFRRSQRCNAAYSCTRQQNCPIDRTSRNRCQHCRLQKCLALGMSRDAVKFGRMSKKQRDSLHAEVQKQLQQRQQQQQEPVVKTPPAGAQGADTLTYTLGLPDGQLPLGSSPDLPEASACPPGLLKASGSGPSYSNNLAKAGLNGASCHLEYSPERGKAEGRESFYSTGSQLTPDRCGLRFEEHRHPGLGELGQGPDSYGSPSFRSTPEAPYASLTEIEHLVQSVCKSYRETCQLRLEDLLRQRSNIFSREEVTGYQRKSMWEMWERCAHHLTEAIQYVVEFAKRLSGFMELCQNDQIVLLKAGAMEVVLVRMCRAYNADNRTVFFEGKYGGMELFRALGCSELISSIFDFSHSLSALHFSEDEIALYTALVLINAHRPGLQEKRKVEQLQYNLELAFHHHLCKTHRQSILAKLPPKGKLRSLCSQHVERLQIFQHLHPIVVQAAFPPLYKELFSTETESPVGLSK

In assay [3] the target is human RORγt ligand binding domain (RORγt LBD) (Homo sapiens (Human), UniProt P51449). Kind of assay: RORγt ThermoFluor® assay (thermal shift binding). Summed up:
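Thermal shift with 0.065 mg/mL RORγt LBD and 60 μM 1,8-ANS in 100 mM Hepes pH 7.0, 10 mM NaCl, 2.5 mM GSH, 0.002% Tween-20.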

[4] abbreviates: RORγt (FL) Reporter Assay A or B, IC50, HEK293T cells.
The mark [5] stands for this setting: read-out: ThermoFluor® Assay, Kd.
Where [6] appears, read: HEK-293T, 3 μM compound concentration (footnote *), read-out: RORγt (FL) Reporter Assay A or B, % inhibition.
[7] abbreviates: HEK-293T, read-out: RORγt (FL) Reporter Assay A or B, % inhibition.

The structures appear in SMILES notation. Where a name gives a salt, the structure may show the parent alone. Read-outs that look alike come from different tables or passages of the source. Marks after values point to notes of the source that are not given here.

human RORγt ligand binding domain (RORγt LBD), sequence (P51449 other isoform, or with tags, fused parts or gaps): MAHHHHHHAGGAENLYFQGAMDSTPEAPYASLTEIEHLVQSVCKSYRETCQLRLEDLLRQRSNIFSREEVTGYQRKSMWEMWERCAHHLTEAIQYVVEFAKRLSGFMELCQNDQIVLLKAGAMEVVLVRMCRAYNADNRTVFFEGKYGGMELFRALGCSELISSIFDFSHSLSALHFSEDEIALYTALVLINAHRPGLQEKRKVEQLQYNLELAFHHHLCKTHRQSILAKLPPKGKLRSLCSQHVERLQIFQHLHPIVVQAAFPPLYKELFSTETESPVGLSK

Take `CCn1nc(C(=O)NC[C@H]2CC[C@H](S(C)(=O)=O)CC2)c(F)c1-c1ccc(N[C@H](C)C(F)(F)F)cc1OC` [Example 203, 1-Ethyl-4-fluoro-5-(2-methoxy-4-(((R)-1,1,1-trifluoropropan-2-yl)amino)phenyl)-N-(((1r,4R)-4-(methylsulfonyl)cyclohexyl)methyl)-1H-pyrazole-3-carboxamide]: the IC50 in assay [1] came out at 39 nM; in assay [2] (setting [4]) it was 130 nM. Moreover, the inhibition at 6 µM in assay [2] (HEK-293T, read-out: RORγt (FL) Reporter Assay A or B, % inhibition @ 6 μM, 6 μM compound concentration) stood at 105%. For the same compound, the Kd in assay [3] (setting [5]) worked out at 17 nM.

With `CCn1nc(C(=O)NC[C@]2(N)CC[C@@H](S(C)(=O)=O)CC2)c(Cl)c1-c1ccc(CC(C)(C)C(F)(F)F)cc1OC(F)F` [Example 19, N-(((1s*,4s*)-1-Amino-4-(methylsulfonyl)cyclohexyl)methyl)-4-chloro-5-(2-(difluoromethoxy)-4-(3,3,3-trifluoro-2,2-dimethylpropyl)phenyl)-1-ethyl-1H-pyrazole-3-carboxamide 2,2,2-trifluoroacetic acid salt], the half-inhibitory concentration (IC50) in assay [1] stood at 14 nM. The inhibition at 3 µM in assay [2] (setting [6]) was determined as 122%.

In the case of `CCn1nc(C(=O)NC[C@@]2(O)CC[C@H](S(C)(=O)=O)C[C@@H]2O)c(Cl)c1-c1ccc(C[C@@H](C)C(F)(F)F)cc1OC(F)F` (stereo in doubt) [Example 138, 4-Chloro-5-(2-(difluoromethoxy)-4-((R*)-3,3,3-trifluoro-2-methylpropyl)phenyl)-N-(((1S*,2S*,4S*)-1,2-dihydroxy-4-(methylsulfonyl)cyclohexyl)methyl)-1-ethyl-1H-pyrazole-3-carboxamide], the inhibition at 1 µM in assay [2] (setting [7]) came out at 101%. Moreover, inhibition in assay [2] (setting [4]) was half-maximal at 12 nM (IC50). The dissociation constant Kd in assay [3] (ThermoFluor® Assay, Kd) is 3.7 nM.

For `COc1cc(CC(C)C(F)(F)F)ccc1-c1c(Cl)c(C(=O)NC[C@H]2CC[C@H](S(C)(=O)=O)CC2)nn1CCO` (stereo partly shown) [Example 200, 4-Chloro-1-(2-hydroxyethyl)-5-(2-methoxy-4-(3,3,3-trifluoro-2-methylpropyl)phenyl)-N-(((1r,4r)-4-(methylsulfonyl)cyclohexyl)methyl)-1H-pyrazole-3-carboxamide], the inhibition at 2 µM in assay [2] (HEK-293T, 2 μM compound concentration, read-out: RORγt (FL) Reporter Assay A or B, % inhibition) was found to be 96%. In assay [2] (setting [4]), this compound gave an IC50 of 78 nM. The Kd in assay [3] (setting [5]) stood at 13 nM.

Turning to `CCn1nc(C(=O)NC[C@]2(O)CC[C@@H](S(C)(=O)=O)CC2)c(Cl)c1-c1ccc(CC(C)(C)C(F)(F)F)cc1Cl` [Example 164, 4-Chloro-5-(2-chloro-4-(3,3,3-trifluoro-2,2-dimethylpropyl)phenyl)-1-ethyl-N-(((1s,4s)-1-hydroxy-4-(methylsulfonyl)cyclohexyl)methyl)-1H-pyrazole-3-carboxamide], in assay [2] (setting [4]), half-maximal inhibition (IC50) required 6.6 nM. The Kd in assay [3] (setting [5]) stood at 0.5 nM.

On to `CCn1nc(C(=O)NC[C@]2(O)CC[C@@H](S(N)(=O)=O)CC2)c(C)c1-c1ccc(C[C@H](C)C(F)(F)F)cc1OC(F)F` (single isomer, unassigned) [Example 61, 5-(2-(difluoromethoxy)-4-((S*)-3,3,3-trifluoro-2-methylpropyl)phenyl)-1-ethyl-N-(((1s,4R)-1-hydroxy-4-sulfamoylcyclohexyl)methyl)-4-methyl-1H-pyrazole-3-carboxamide], for which the inhibition at 1 µM in assay [2] (setting [7]) was found to be 130%. This compound also showed an IC50 in assay [2] (setting [4]) of 68 nM. The Kd in assay [3] (ThermoFluor® Assay, Kd) is 6.5 nM.

`CCC(=O)NS(=O)(=O)[C@H]1CC[C@H](CNC(=O)c2nn(CC)c(-c3ccc(CC(C)(C)C(F)(F)F)cc3OC(F)F)c2Cl)CC1` [Example 70, 4-Chloro-5-(2-(difluoromethoxy)-4-(3,3,3-trifluoro-2,2-dimethylpropyl)phenyl)-1-ethyl-N-(((r,4r)-4-(N-propionylsulfamoyl)cyclohexyl)methyl)-1H-pyrazole-3-carboxamide]: the “RORγt (FL) Reporter Assay A or B, % inhibition” value in assay [2] (3 μM compound concentration (footnote *)) is 103* %. Besides, in assay [2] (HEK293T cells, read-out: RORγt (FL) Reporter Assay A or B, IC50), the IC50 was determined as 23 nM. In assay [3] (setting [5]), the Kd was 0.72 nM.

For `CCn1nc(C(=O)NC[C@]2(O)CC[C@@H](S(C)(=O)=O)C[C@H]2N)c(Cl)c1-c1ccc(CC(C)(C)C(F)(F)F)cc1OC(F)F` (single isomer, unassigned) [Example 6, N-(((1R*,2R*,4R*)-2-Amino-1-hydroxy-4-(methylsulfonyl)cyclohexyl)methyl)-4-chloro-5-(2-(difluoromethoxy)-4-(3,3,3-trifluoro-2,2-dimethylpropyl)phenyl)-1-ethyl-1H-pyrazole-3-carboxamide Hydrobromide], in assay [2] (setting [6]), the inhibition at 3 µM turned out to be 117%. In addition, the IC50 in assay [2] (setting [4]) is 29 nM. For the same compound, the Kd in assay [3] (ThermoFluor® Assay, Kd) turned out to be 2.4 nM.

With `CCn1nc(C(=O)NC[C@@H]2CC[C@H](S(C)(=O)=O)CN2)c(Cl)c1-c1ccc(CC(C)(C)C(F)(F)F)cc1OC(F)F` (stereo in doubt) [Example 12, 4-Chloro-5-(2-(difluoromethoxy)-4-(3,3,3-trifluoro-2,2-dimethylpropyl)phenyl)-1-ethyl-N-(((2S*,5S*)-5-(methylsulfonyl)piperidin-2-yl)methyl)-1H-pyrazole-3-carboxamide], the inhibition at 3 µM in assay [2] (setting [6]) worked out at 92%. Moreover, the IC50 in assay [2] (setting [4]) came to 91 nM. The Kd in assay [3] (ThermoFluor® Assay, Kd) amounted to 74 nM.

In the case of `CCn1nc(C(=O)NC[C@H]2CC[C@H](S(C)(=O)=O)CN2)c(Cl)c1-c1ccc(CC(C)(C)C(F)(F)F)cc1OC(F)F` (stereo in doubt) [Example 9, 4-Chloro-5-(2-(difluoromethoxy)-4-(3,3,3-trifluoro-2,2-dimethylpropyl)phenyl)-1-ethyl-N-(((2R*,5S*)-5-(methylsulfonyl)piperidin-2-yl)methyl)-1H-pyrazole-3-carboxamide hydrobromide], the inhibition at 1 µM in assay [2] (setting [7]) worked out at 104%. The same compound had an IC50 in assay [2] (setting [4]) of 9.1 nM. The Kd in assay [3] (ThermoFluor® Assay, Kd) was 1.6 nM.

With `CCCn1nc(C(=O)NC[C@H]2CC[C@H](S(C)(=O)=O)CC2)c(Cl)c1-c1ccc(C[C@@H](C)C(F)(F)F)cc1OC` (single isomer, unassigned) [Example 43, 4-Chloro-5-(2-methoxy-4-((R*)-3,3,3-trifluoro-2-methylpropyl)phenyl)-N-(((1r,4R)-4-(methylsulfonyl)cyclohexyl)methyl)-1-propyl-1H-pyrazole-3-carboxamide], the inhibition at 0.67 µM in assay [2] (setting [7]) stood at 99%. The IC50 in assay [2] (setting [4]) came out at 7 nM. The Kd in assay [3] (ThermoFluor® Assay, Kd) was 0.21 nM.

In the case of `CCn1nc(C(=O)NC[C@H]2CC[C@H](S(C)(=O)=O)CC2)c(Cl)c1-c1ccc(CC(C)(C)C(F)(F)F)cc1OC` [Example 44, 4-chloro-1-ethyl-5-(2-methoxy-4-(3,3,3-trifluoro-2,2-dimethylpropyl)phenyl)-N-(((1r,4r)-4-(methylsulfonyl)cyclohexyl)methyl)-1H-pyrazole-3-carboxamide], the IC50 in assay [1] came to 5.2 nM. Besides, the inhibition at 0.67 µM in assay [2] (setting [7]) is 96%.

As for `CCn1nc(C(=O)NC[C@]2(O)CC[C@@H](S(N)(=O)=O)CC2)c(Cl)c1-c1ccc(C[C@H](C)C(F)(F)F)cc1OC(F)F` (single isomer, unassigned) [Example 60, 4-Chloro-5-(2-(difluoromethoxy)-4-((S*)-3,3,3-trifluoro-2-methylpropyl)phenyl)-1-ethyl-N-(((1s,4R)-1-hydroxy-4-sulfamoylcyclohexyl)methyl)-1H-pyrazole-3-carboxamide], the inhibition at 3 µM in assay [2] (setting [6]) amounted to 114%. Also, the IC50 in assay [2] (setting [4]) is 38 nM. In assay [3] (ThermoFluor® Assay, Kd), the Kd stood at 1.9 nM.

The record behind these values is patent publication US10975037B2 (priority 2018, dated 2021).
